Test results: ChEMBL document CHEMBL1147425, “Structure-activity relationships of non-imidazole H(3) receptor ligands. Part 3: 5-Substituted 3-phenyl-1,2,4-oxadiazoles as potent antagonists” (Bioorg Med Chem Lett, 2004)

Assays:
[1] = tested on: Mus musculus; experiment: Antagonistic effect was observed against agonist induced dipsogenia in mice after i.p. administration of compound; Active; type: functional
[2] = target: Histamine H3 receptor (Rattus norvegicus, UniProt Q9QYN8); experiment: Binding affinity for rat histamine H3 receptor on rat cortical cells
[3] = target: Histamine H1 receptor (Homo sapiens, UniProt P35367); experiment: Binding affinity towards histamine H1 receptor of human colon cells was determined; type: cell-based
[4] = target: Histamine H3 receptor (Homo sapiens, UniProt Q9Y5N1); experiment: Binding affinity for human histamine H3 receptor on human colon cells; type: cell-based
[5] = target: Histamine H2 receptor (Homo sapiens, UniProt P25021); experiment: Binding affinity towards histamine H2 receptor of human colon cells was determined; type: cell-based
[6] = target: Histamine H4 receptor (Homo sapiens, UniProt Q9H3N8); experiment: Binding affinity towards histamine H4 receptor of human colon cells was determined; type: cell-based

Chain of Histamine H3 receptor (Rattus norvegicus, UniProt Q9QYN8) (Q9QYN8 whole entry): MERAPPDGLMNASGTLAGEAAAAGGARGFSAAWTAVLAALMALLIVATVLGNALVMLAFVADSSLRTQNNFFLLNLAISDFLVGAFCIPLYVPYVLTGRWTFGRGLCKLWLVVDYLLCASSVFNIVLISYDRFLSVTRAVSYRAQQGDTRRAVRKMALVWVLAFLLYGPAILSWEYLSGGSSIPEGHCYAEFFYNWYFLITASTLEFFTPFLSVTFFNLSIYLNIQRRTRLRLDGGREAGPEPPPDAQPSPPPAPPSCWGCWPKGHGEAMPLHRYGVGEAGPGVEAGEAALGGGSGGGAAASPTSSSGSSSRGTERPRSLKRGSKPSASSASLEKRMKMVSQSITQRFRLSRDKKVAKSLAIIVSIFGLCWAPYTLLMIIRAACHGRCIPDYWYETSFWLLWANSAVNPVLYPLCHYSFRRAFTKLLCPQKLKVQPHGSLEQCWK
Chain of Histamine H3 receptor (Homo sapiens, UniProt Q9Y5N1) (Q9Y5N1 whole entry): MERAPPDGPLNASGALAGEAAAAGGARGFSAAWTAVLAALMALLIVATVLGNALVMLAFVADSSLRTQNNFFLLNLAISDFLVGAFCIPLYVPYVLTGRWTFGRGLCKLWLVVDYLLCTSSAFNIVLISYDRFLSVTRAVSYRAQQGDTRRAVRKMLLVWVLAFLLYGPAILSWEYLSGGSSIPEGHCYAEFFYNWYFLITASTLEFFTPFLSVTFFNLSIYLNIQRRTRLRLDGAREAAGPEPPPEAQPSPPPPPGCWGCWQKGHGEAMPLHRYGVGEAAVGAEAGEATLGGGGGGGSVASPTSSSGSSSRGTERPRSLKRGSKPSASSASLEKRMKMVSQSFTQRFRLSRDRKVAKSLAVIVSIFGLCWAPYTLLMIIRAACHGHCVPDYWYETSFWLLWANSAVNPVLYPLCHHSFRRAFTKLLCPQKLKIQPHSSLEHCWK
Chain of Histamine H1 receptor (P35367 whole entry): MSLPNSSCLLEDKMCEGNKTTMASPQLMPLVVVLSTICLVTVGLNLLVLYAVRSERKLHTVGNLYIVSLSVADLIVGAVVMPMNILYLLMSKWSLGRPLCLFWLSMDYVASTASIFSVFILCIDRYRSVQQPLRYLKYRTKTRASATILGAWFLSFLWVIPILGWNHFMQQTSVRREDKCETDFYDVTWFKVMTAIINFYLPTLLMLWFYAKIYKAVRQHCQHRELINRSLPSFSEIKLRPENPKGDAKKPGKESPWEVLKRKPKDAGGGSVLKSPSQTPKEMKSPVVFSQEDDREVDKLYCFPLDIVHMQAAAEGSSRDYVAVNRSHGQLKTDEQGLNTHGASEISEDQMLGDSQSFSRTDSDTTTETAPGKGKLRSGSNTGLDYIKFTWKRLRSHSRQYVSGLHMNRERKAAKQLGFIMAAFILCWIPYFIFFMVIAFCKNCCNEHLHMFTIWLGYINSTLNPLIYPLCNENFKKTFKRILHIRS
Chain of Histamine H2 receptor (P25021 whole entry): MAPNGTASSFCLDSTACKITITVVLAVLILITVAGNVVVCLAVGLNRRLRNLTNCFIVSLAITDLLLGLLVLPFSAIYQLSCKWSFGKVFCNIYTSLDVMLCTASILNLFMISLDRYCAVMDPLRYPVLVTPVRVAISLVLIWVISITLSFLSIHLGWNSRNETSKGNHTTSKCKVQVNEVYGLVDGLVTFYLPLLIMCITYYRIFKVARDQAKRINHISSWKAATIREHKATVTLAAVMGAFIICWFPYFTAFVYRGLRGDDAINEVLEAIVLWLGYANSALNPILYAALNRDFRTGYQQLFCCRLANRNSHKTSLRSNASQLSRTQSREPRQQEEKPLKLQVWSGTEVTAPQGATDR

Row | SMILES | Ki [2] [nM] | Ki [3] [nM] | Ki [4] [nM] | Ki [5] [µM] | Ki [6] [µM] | Activity [1] [µM/kg]
1 | COc1cccc(C(=O)N[C@H](C)C(=O)N2CCN(CCCOc3ccc(-c4noc(CC5CCCC5)n4)c(F)c3)CC2)c1 | 3.6 | – | 34 | – | – | –
2 | CCOCC(=O)N[C@H](C)C(=O)N1CCN(CCCOc2ccc(-c3noc(-c4ccccc4)n3)c(F)c2)CC1 | 10 | – | 100 | – | – | –
3 | C[C@@H](NC(=O)c1ccco1)C(=O)N1CCCN(CCCOc2ccc(-c3noc(-c4cncs4)n3)c(F)c2)CC1 | 6.2 | – | 240 | – | – | –
4 | Cc1cccc(C(=O)N[C@H](C)C(=O)N2CCN(CCCOc3ccc(-c4noc(CC5CCCC5)n4)c(F)c3)CC2)c1 | 4.7 | – | 31 | – | – | –
5 | C[C@@H](NC(=O)CC1CCCC1)C(=O)N1CCN(CCCOc2ccc(-c3noc(-c4ccccc4)n3)c(F)c2)CC1 | 21 | – | 130 | – | – | –
6 | C[C@H](NC(=O)OC(C)(C)C)c1nc(-c2ccc(OCCCN3CCCN(C(=O)[C@@H](C)NC(=O)c4ccco4)CC3)cc2F)no1 | 8.2 | – | 140 | – | – | –
7 | C[C@@H](NC(=O)c1cccc(OC(F)(F)F)c1)C(=O)N1CCN(CCCOc2ccc(-c3noc(CC4CCCC4)n3)c(F)c2)CC1 | 24 | – | 65 | – | – | –
8 | CC(C)CCC(=O)N[C@H](C)C(=O)N1CCN(CCCOc2ccc(-c3noc(CC4CCCC4)n3)c(F)c2)CC1 | 6.1 | – | 98 | – | – | –
9 | CCC(=O)N[C@H](C)C(=O)N1CCN(CCCOc2ccc(-c3noc(CC4CCCC4)n3)c(F)c2)CC1 | 7.2 | – | 170 | – | – | –
10 | C[C@@H](NC(=O)c1ccco1)C(=O)N1CCN(CCCOc2ccc(-c3noc(-c4ccccc4)n3)c(F)c2)CC1 (stereo in doubt; 13q) | 13 | – | 83 | – | – | –
11 | C[C@@H](NC(=O)C1CCCCC1)C(=O)N1CCN(CCCOc2ccc(-c3noc(-c4ccccc4)n3)c(F)c2)CC1 | 6.9 | – | 49 | – | – | –
12 | C[C@@H](NC(=O)c1ccco1)C(=O)N1CCCN(CCCOc2ccc(-c3noc(-c4ccncc4)n3)c(F)c2)CC1 | 11 | – | 520 | – | – | –
13 | C[C@@H](NC(=O)C(C)(C)C)C(=O)N1CCN(CCCOc2ccc(-c3noc(CC4CCCC4)n3)c(F)c2)CC1 | 7 | – | 130 | – | – | –
14 | C[C@@H](NC(=O)C1CCCC1)C(=O)N1CCN(CCCOc2ccc(-c3noc(-c4ccccc4)n3)c(F)c2)CC1 | 7 | – | 70 | – | – | –
15 | CC(C)C(=O)N[C@H](C)C(=O)N1CCN(CCCOc2ccc(-c3noc(-c4ccccc4)n3)c(F)c2)CC1 | 14 | – | 110 | – | – | –
16 | C[C@@H](NC(=O)c1ccc(Cl)c(Cl)c1)C(=O)N1CCCN(CCCOc2ccc(-c3noc(CC4CCCC4)n3)c(F)c2)CC1 | 31 | – | 140 | – | – | –
17 | C[C@@H](NC(=O)[C@H]1CCCO1)C(=O)N1CCN(CCCOc2ccc(-c3noc(-c4ccccc4)n3)c(F)c2)CC1 | 4.2 | – | 92 | – | – | –
18 | Cc1ccc(C)c(C(=O)N[C@H](C)C(=O)N2CCN(CCCOc3ccc(-c4noc(CC5CCCC5)n4)c(F)c3)CC2)c1 | 6.6 | – | 75 | – | – | –
19 | C[C@@H](NC(=O)c1ccsc1)C(=O)N1CCN(CCCOc2ccc(-c3noc(-c4ccccc4)n3)c(F)c2)CC1 | 4.2 | – | 28 | – | – | –
20 | C[C@@H](NC(=O)c1ccc(C#N)cc1)C(=O)N1CCN(CCCOc2ccc(-c3noc(-c4ccccc4)n3)c(F)c2)CC1 | 2.6 | – | 20 | – | – | –
21 | C[C@@H](NC(=O)c1ccco1)C(=O)N1CCCN(CCCOc2ccc(-c3noc([C@@H](C)NC(=O)OC(C)(C)C)n3)c(F)c2)CC1 | 28 | – | 520 | – | – | –

The next compounds have a lower Ki [2] than those just listed; values first:

Row | Ki [2] [nM] | Ki [3] [nM] | Ki [4] [nM] | Ki [5] [µM] | Ki [6] [µM] | SMILES | Activity [1] [µM/kg]
22 | 2.4 | 890 | 15 | > 10 | > 10 | C[C@@H](NC(=O)c1ccc(N(C)C)cc1)C(=O)N1CCN(CCCOc2ccc(-c3noc(CC4CCCC4)n3)c(F)c2)CC1 | >0.01
23 | 1.5 | – | 17 | – | – | C[C@@H](NC(=O)c1ccc(F)cc1)C(=O)N1CCN(CCCOc2ccc(-c3noc(CC4CCCC4)n3)c(F)c2)CC1 | –
24 | 1.3 | – | 43 | – | – | C[C@@H](NC(=O)c1ccco1)C(=O)N1CCN(CCCOc2ccc(C(=O)C3CC3)c(F)c2)CC1 | –
25 | 2 | – | 36 | – | – | C[C@@H](NC(=O)C(C)(C)C)C(=O)N1CCCN(CCCOc2ccc(-c3noc(CC4CCCC4)n3)c(F)c2)CC1 | –
26 | 1.2 | – | 9.5 | – | – | C[C@@H](NC(=O)c1ccc(C#N)cc1)C(=O)N1CCN(CCCOc2ccc(-c3noc(CC4CCCC4)n3)c(F)c2)CC1 | –
27 | 0.83 | – | 9.3 | – | – | C[C@@H](NC(=O)c1ccco1)C(=O)N1CCCN(CCCOc2ccc(-c3noc(CC4CCCC4)n3)c(F)c2)CC1 | –
28 | 2 | – | 40 | – | – | CC(=O)N[C@H](C)C(=O)N1CCCN(CCCOc2ccc(-c3noc(CC4CCCC4)n3)c(F)c2)CC1 | –
29 | 1.7 | – | 85 | – | – | C[C@@H](NC(=O)c1ccco1)C(=O)N1CCCN(CCCOc2ccc(-c3noc(-c4ccoc4)n3)c(F)c2)CC1 | –
30 | 2.3 | – | 34 | – | – | CCC(CC)c1nc(-c2ccc(OCCCN3CCCN(C(=O)[C@@H](C)NC(=O)c4ccco4)CC3)cc2F)no1 | –
31 | 1.7 | – | 29 | – | – | C[C@@H](NC(=O)c1cnccn1)C(=O)N1CCN(CCCOc2ccc(-c3noc(-c4ccccc4)n3)c(F)c2)CC1 | –
32 | 1.3 | – | 14 | – | – | CC(C)C(=O)N[C@H](C)C(=O)N1CCCN(CCCOc2ccc(-c3noc(CC4CCCC4)n3)c(F)c2)CC1 | –
33 | 2.4 | – | 19 | – | – | C[C@@H](NC(=O)c1ccco1)C(=O)N1CCCN(CCCOc2ccc(-c3noc(C4CCCCC4)n3)c(F)c2)CC1 | –
34 | 1.4 | – | 17 | – | – | Cc1ccc(C(=O)N[C@H](C)C(=O)N2CCCN(CCCOc3ccc(-c4noc(CC5CCCC5)n4)c(F)c3)CC2)cc1 | –
